Experimental data reported in US12404255B2, “Compound and pharmaceutical composition containing same for treating or preventing neural damage, neural disease, or developmental disorder through promoting proliferation, differentiation, and/or regeneration of neural cells” (ETNOVA THERAPEUTICS CORP., priority 2020, dated 2025).

What was measured:
[1] = system: human neuroblastoma SH-SY5Y; test: Cell viability test using CCK-8; format: cell-based; conditions: CCK-8, 0-50 μM, 24, 48, 72 hours
Method: Cell viability analysis of a nerve cell line using CCK-8 was performed on human neuroblastoma SH-SY5Y as an undifferentiated nerve cell line. For reference, the analysis using the CCK-8 (Cell counting kit-8) was based on a highly water-soluble tetrazolium salt-SST-8. The analysis is based on the fact that when [2-(2-methoxy-4-nitrophenyl)-3-(4-nitrophenyl)(2,4-disulfophenyl)-2H-tetrazolium, monosodium salt] is reduced under presence of an electron mediator, a water-soluble formazan orange dye is produced, and an amount of the formazan dye produced by dehydrogenase in cells is directly proportional to the number of living cells. The specific experimental method is as follows.
The next day, the growth medium was removed therefrom. […] At 2 hours before a harvest time, 10 μL of CCK-8 solution was added to each well and the cells were incubated for an additional 2 hours. […] Cell viability (%)=B/A×100(%) [Cell viability calculation equation]
(In the equation, A denotes an absorbance value measured in a control well, and B denotes an absorbance value measured in the well containing the drug).

[2] = Solubility test in deionized water; format: physicochemical
Method: In order to check the solubility of the compound according to the present disclosure, each of MMB-11903B according to the present disclosure prepared in the Preparation Example and ATRA was added to 1 mL of deionized water at a concentration of 100 mM (Compound MMB-11903B according to the present disclosure: 72.8 mg/mL; ATRA: 30.0 mg/mL) and each mixed solution was stirred for dissolution by lightly vortexing the same. After each of the prepared solution of the compound MMB-11903B according to the present disclosure and the prepared ATRA solution was left at room temperature for 20 minutes, an image thereof was taken again to observe a dissolution state of each compound in each solution (FIG. 1).
Thus, the compound MMB-11903B according to the present disclosure may be easily dissolved in the solvent such as water, so that it has high solubility, and further has solubility stability, so that it may maintain a dissolved state even after being left for a long time.

SH-SY5Y [3] = test: Neurite elongation and new neuron generation and growth using immunofluorescence staining (color histogram); format: cell-based, human; conditions: 10 μM, day 3
Method: For cell viability analysis, stabilized cells were planted in a 60 mm dish at a density of ×10^5 cells/dish. […] The next day, the growth medium was removed therefrom. […] Then, the cells were incubated therein for 1, 3, and 5 days, and under at 37° C. and 5% C02 condition. The cells were harvested and were washed with DPBS, and fixed with 10% Neutral Buffered Formalin for 10 minutes, washed 3 times with Tris-buffered saline (TBS), and then a reaction thereof was carried out for 15 minutes in 0.3% Triton X-100 (in TBS). The cells were washed three times in TBS, and a solution of 5% Bovine serum albumin (BSA) and Normal Goat Serum (NGS) in TBS was added thereto and a reaction thereof was carried out at 4° C. for 24 hours. Differentiation into the nerve cells and formation of the neurite were identified using j-III tubulin primary antibody as a neuron specific marker and doublecortin primary antibody as a newborn immature neuron marker. […] The cells were washed three times with TBS, and were mounted (VECTASHIELD® Mounting Medium with DAPI; Vector Laboratories, Burlingame, CA, USA), and images were acquired with a fluorescence microscope. […]
The color histogram was measured using the ImageJ program.

SH-SY5Y [4] = conditions: human, 24 h, 200 μM
Excerpt: (§1) The calculated values were graphed using the GraphPad Prism application.

SH-SY5Y [5] = test: Cell proliferation effect using immunofluorescence staining (Ki-67 positive cells); format: cell-based, human; conditions: 1st day of exposure
Method: The number of cells which were positive relative to Ki-67 as a marker for neuronal proliferation was analyzed. The number of the positive cells was automatically obtained using the ImageJ program. Ki-67 positive cells (%)=(ki-67 positive cell number/DAPI positive cell number)×100 [Calculation equation of Ki-67 positive cell number]
The calculated values were graphed using the GraphPad Prism application. […] The statistical significance of the obtained values was identified via one-way ANOVA with Dunnett's multiple comparison test. *p<0.5, **p<0.1, ***p<0.01 vs. control, #p<0.5, ##p<0.1 vs. DO3A, †p<0.5, †††p<0.01 vs. ATRA indicate presence of statistical significance.

SH-SY5Y [6] = test: Neurite elongation promoting effect using immunofluorescence staining; format: cell-based, human; conditions: 10 μM
Excerpt: as §1

SH-SY5Y [7] = test: Changes in morphology of nerve cells (inverted microscope); format: cell-based, human; design: neurite elongation / change in cell morphology: dose or concentration left out as unconfirmed; conditions: microscope image
Method: For cell viability analysis, stabilized cells were planted in a 60 mm dish at a density of ×10^5 cells/dish. […] The next day, the growth medium was removed therefrom. […] Then, the cells were incubated therein for 1, 3, and 5 days, and under at 37° C. and 5% CO2 condition. Cell morphology was imaged with a Nikon inverted microscope (Nikon, ECLIPSE Ts2, Nikon Corporation, Tokyo, Japan).

SMILES	cell viability, dependence on concentration and time [1]	dissolution state immediately after dissolution ([2]; 100 mM in 1 mL deionized water, light vortexing, initial state)	dissolution state after being left ([2]; 100 mM in deionized water, left at room temperature for 20 minutes)	expression level of new neurons (color histogram) (SH-SY5Y [3])	cytotoxicity (SH-SY5Y [4])	cell proliferation (Ki-67 positive cells) versus control (SH-SY5Y [5])	neurite length versus control (SH-SY5Y [6]; ImageJ measurement after fluorescent staining)	neurite elongation in fluorescence image (SH-SY5Y [6]; 1, 3, and 5 days, tubulin and doublecortin staining)	neurite elongation / change in cell morphology (SH-SY5Y [7]; 1, 3, and 5 days)	apoptosis due to cytotoxicity (SH-SY5Y [7]; 5-20 μM, 1-5 days)
CC1=C(/C=C/C(C)=C/C=C/C(C)=C/C(=O)O)C(C)(C)CCC1 [ATRA, all-trans retinoic acid]	the higher the concentration of ATRA and the longer the time, the lower the cell viability	uniformly dissolved in the solution initially	separated from the solvent and was precipitated over time	low expression level of new neurons	approximately 55%	did not exhibit a significant difference from that of the control				
O=C(O)CN1CCNCCN(CC(=O)O)CCN(CC(=O)O)CC1 [DO3A]						approximately two times larger than the control	did not achieve the neurite elongation as in the control	neurite elongation was not observed	neurite elongation was not observed	observed at 10 μM, 5 days and at 20 μM, and 3 days
